Like-named read-outs stand apart in the source and are kept apart here.
Assays:
[1] = system: EAS associated adrenal hyperplasia no. 1 primary culture; test: Steroid profile by LC/MS-MS in EAS associated adrenal hyperplasia no. 1; assay type: cell-based, human; conditions: for 11-DOC absolute change vs ACTH stimulation with vehicle / 11-DOC percentage change vs ACTH stimulation with vehicle / 17-OHP absolute change vs ACTH stimulation with vehicle / 17-OHP percentage change vs ACTH stimulation with vehicle / Androstenedione absolute change vs ACTH stimulation with vehicle / Androstenedione percentage change vs ACTH stimulation with vehicle / Corticosterone absolute change vs ACTH stimulation with vehicle / Corticosterone percentage change vs ACTH stimulation with vehicle / Cortisol absolute change vs ACTH stimulation with vehicle / Cortisol percentage change vs ACTH stimulation with vehicle / DHEA absolute change vs ACTH stimulation with vehicle / DHEAS absolute change vs ACTH stimulation with vehicle / Prog absolute change vs ACTH stimulation with vehicle / Prog percentage change vs ACTH stimulation with vehicle / Testosterone absolute change vs ACTH stimulation with vehicle / Testosterone percentage change vs ACTH stimulation with vehicle: EAS associated adrenal hyperplasia no. 1, ACTH; for 11-DOC absolute change vs ACTH stimulation with vehicle / 11-DOC percentage change vs ACTH stimulation with vehicle / 17-OHP absolute change vs ACTH stimulation with vehicle / 17-OHP percentage change vs ACTH stimulation with vehicle / Androstenedione absolute change vs ACTH stimulation with vehicle / Androstenedione percentage change vs ACTH stimulation with vehicle / Corticosterone absolute change vs ACTH stimulation with vehicle / Corticosterone percentage change vs ACTH stimulation with vehicle / Cortisol absolute change vs ACTH stimulation with vehicle / Cortisol percentage change vs ACTH stimulation with vehicle / DHEA absolute change vs ACTH stimulation with vehicle / DHEAS absolute change vs ACTH stimulation with vehicle / Prog absolute change vs ACTH stimulation with vehicle / Prog percentage change vs ACTH stimulation with vehicle / Testosterone absolute change vs ACTH stimulation with vehicle / Testosterone percentage change vs ACTH stimulation with vehicle / 11-DOC absolute change vs control / 11-DOC percentage change vs control / 17-OHP absolute change vs control / 17-OHP percentage change vs control / Androstenedione absolute change vs control / Androstenedione percentage change vs control / Corticosterone absolute change vs control / Corticosterone percentage change vs control / Cortisol absolute change vs control / Cortisol percentage change vs control / DHEA absolute change vs control / DHEAS absolute change vs control / Prog absolute change vs control / Prog percentage change vs control / Testosterone absolute change vs control / Testosterone percentage change vs control: 3 days; for 11-DOC absolute change vs control / 11-DOC percentage change vs control / 17-OHP absolute change vs control / 17-OHP percentage change vs control / Androstenedione absolute change vs control / Androstenedione percentage change vs control / Corticosterone absolute change vs control / Corticosterone percentage change vs control / Cortisol absolute change vs control / Cortisol percentage change vs control / DHEA absolute change vs control / DHEAS absolute change vs control / Prog absolute change vs control / Prog percentage change vs control / Testosterone absolute change vs control / Testosterone percentage change vs control: EAS associated adrenal hyperplasia no. 1, Basal
Method: (§1) To obtain primary cultures, adrenal specimens (adrenocortical adenomas, adrenal hyperplasias and adrenocortical carcinomas) were collected after adrenalectomy at the department of Surgery, Erasmus University Medical Center, Rotterdam, the Netherlands, between April 2016 and May 2018. The study was conducted under guidelines that have been approved by the Medical Ethics Committee of the Erasmus Medical Center and informed consent was obtained from all patients. Immediately after surgery, specimens were minced into small pieces of 2-3 mm^3, washed in culture medium and centrifuged for 5 minutes at 600 g. The tissue was stored overnight in culture medium at 4° C., where after the tissue was centrifuged again and the supernatant was removed. Fragments were dissociated using 10-25 ml collagenase type 1 (2 mg/ml: Sigma-Aldrich), followed by incubation at 37° C. for up to two hours. Ficoll (GE healthcare) density gradient separation was used once or twice as required in order to separate contaminating red blood cells from the tumor cells. Cell viability and cell amount were counted by trypan blue exclusion. Dissociated cells were plated at a density of 10^5 cells per well. ACTH-secreting corticotroph pituitary adenoma tissue from patients with Cushing's disease (n=2) was available after transsphenoidal surgery. Single-cell suspensions of the pituitary adenoma tissues were prepared as previously described in detail.
Primary culture conditions for primary cultures were similar as described in the section ‘cell culture and compounds’, but with small adjustments: ACTH was used at a concentration of 85 pM (250 pg/mL), treatment was started 3-4 days after plating of the cells and cells were incubated for 3 days, and; for pituitary primary cultures, levoketoconazole and racemic ketoconazole were only tested at a concentration of 1 μM. Owing to a limited number of cells obtained from the specimens, not all experiments were carried out in every primary culture.
(§2) Cortisol concentrations were measured in the supernatant using a chemiluminescence immunoassay system (Immulite 2000XPi; Siemens DPC Inc., Los Angeles, Calif., USA). In addition, we carried out multi-steroid analysis by liquid chromatography/mass spectrometry (LC/MS-MS) to accurately quantify androstenedione, corticosterone, cortisol, 11-deoxycortisol, DHEA, DHEAS, progesterone, 17-hydroxyprogesterone, and testosterone. Concentrations that were tested on the LC/MS-MS were closest to 50% inhibition or maximal inhibition of cortisol as determined by the immunoassay. Steroids were quantified with respect to a calibration series, with internal standards. Steroids were quantified on a Xevo TQS LC-MS/MS (Waters Chromatography).
(§3) Statistical analysis was performed using Graphpad Prism 6.0 (Graphpad Software, San Diego, CA). Non-linear regression curve fitting program was used to calculate the half maximal inhibitory concentrations (IC50) on cortisol production. Effects of both compounds on the steroid profile were measured as absolute change compared to control and compared using the Student's t-test. When assessing differences between effects of both compounds, the percentage change was evaluated and compared in order to correct for differences in the vehicle treated control cells. Values of P<0.05 were considered statistically significant and data are presented as mean SEM.

[2] = system: ACTH independent hyperplasia cultures; test: Cortisol production in primary ACTH independent hyperplasia cultures; assay type: cell-based, human; conditions: ACTH independent hyperplasia no. 1, basal condition, 3 days
Method: as §1, with “ACTH-secreting corticotroph pituitary adenoma tissue from patients with Cushing's disease (n=2) was available after transsphenoidal surgery. Single-cell suspensions of the pituitary adenoma tissues were prepared as previously described in detail.” left out
as §2, with “Concentrations that were tested on the LC/MS-MS were closest to 50% inhibition or maximal inhibition of cortisol as determined by the immunoassay.” left out
Statistical analysis was performed using Graphpad Prism 6.0 (Graphpad Software, San Diego, CA). […] Effects of both compounds on the steroid profile were measured as absolute change compared to control and compared using the Student's t-test. […]

[3] = system: primary human corticotroph pituitary adenoma cultures; test: Cell amount in primary corticotroph pituitary adenoma cultures; assay type: cell-based; conditions: corticotroph pituitary adenoma primary culture no. 2, 1 μM, 7 days
Method: as §1, with “ACTH-secreting corticotroph pituitary adenoma tissue from patients with Cushing's disease (n=2) was available after transsphenoidal surgery. Single-cell suspensions of the pituitary adenoma tissues were prepared as previously described in detail.” left out
As a measure of cell number, DNA concentrations were determined using the bisbenzimide fluorescent dye (Hoechst 33258, Sigma Aldrich), as previously described.

[4] = cited from earlier work
[5] = system: primary human adrenocortical carcinoma cultures; test: Cortisol production in primary adrenocortical carcinoma cultures; assay type: cell-based
Method: as §1
Owing to a limited number of cells obtained from the specimens, not all experiments were carried out in every primary culture.
as §2, §3

## CC(=O)N1CCN(c2ccc(OC[C@@H]3CO[C@@](Cn4ccnc4)(c4ccc(Cl)cc4Cl)O3)cc2)CC1 (relative stereo) [levoketoconazole, 2S,4R cis-1-acetyl-4-[4-[[2-(2,4-dichlorophenyl)-2-(1H-imidazol-1-ylmethyl)-1,3-dioxolan-4-yl]methoxyl]phenyl]piperazine]
[1]; 0.05 μM
  11-DOC absolute change vs ACTH stimulation with vehicle: did not change
  11-DOC percentage change vs ACTH stimulation with vehicle: (+1.6%)
  17-OHP absolute change vs ACTH stimulation with vehicle: +8.300 nmol/l
  17-OHP percentage change vs ACTH stimulation with vehicle: +41%
  Androstenedione absolute change vs ACTH stimulation with vehicle: -9.600 nmol/L
  Androstenedione percentage change vs ACTH stimulation with vehicle: −50%
  Corticosterone absolute change vs ACTH stimulation with vehicle: +97.95 nmol/l
  Corticosterone percentage change vs ACTH stimulation with vehicle: +29%
  Cortisol absolute change vs ACTH stimulation with vehicle: -234.8 nmol/L
  Cortisol percentage change vs ACTH stimulation with vehicle: −37%
  DHEA absolute change vs ACTH stimulation with vehicle: <LLQ
  DHEAS absolute change vs ACTH stimulation with vehicle: <LLQ
  Prog absolute change vs ACTH stimulation with vehicle: +6.025 nmol/l
  Prog percentage change vs ACTH stimulation with vehicle: +167%
  Testosterone absolute change vs ACTH stimulation with vehicle: -0.3250 nmol/L
  Testosterone percentage change vs ACTH stimulation with vehicle: −45%
  11-DOC absolute change vs control: -96.33 nmol/L
  11-DOC percentage change vs control: (−37%)
  17-OHP absolute change vs control: -0.4667 nmol/L
  17-OHP percentage change vs control: (−4.6%)
  Androstenedione absolute change vs control: -6.508 nmol/L
  Androstenedione percentage change vs control: (−64%)
  Corticosterone absolute change vs control: -67.07 nmol/L
  Corticosterone percentage change vs control: (−33%)
  Cortisol absolute change vs control: -178.4 nmol/L
  Cortisol percentage change vs control: (−64%)
  DHEA absolute change vs control: <LLQ
  DHEAS absolute change vs control: <LLQ
  Prog absolute change vs control: +5.108 nmol/l
  Prog percentage change vs control: (+123%)
  Testosterone absolute change vs control: -0.2583 nmol/L
  Testosterone percentage change vs control: (−48%)
[1]; 0.05 μM, listed as LK
  11-DOC absolute change vs ACTH stimulation with vehicle: -6.000 nmol/L
  17-OHP absolute change vs ACTH stimulation with vehicle: +8.300 nmol/l
  17-OHP percentage change vs ACTH stimulation with vehicle: (+41%)
  Androstenedione absolute change vs ACTH stimulation with vehicle: -9.600 nmol/L
  Androstenedione percentage change vs ACTH stimulation with vehicle: (−50%)
  Corticosterone absolute change vs ACTH stimulation with vehicle: 97.95 nmol/L
  Corticosterone percentage change vs ACTH stimulation with vehicle: (+29%)
  Cortisol absolute change vs ACTH stimulation with vehicle: -234.8 nmol/L
  Cortisol percentage change vs ACTH stimulation with vehicle: (−37%)
  Prog percentage change vs ACTH stimulation with vehicle: (+167%)
  Testosterone absolute change vs ACTH stimulation with vehicle: -0.3250 nmol/L
  Testosterone percentage change vs ACTH stimulation with vehicle: (−45%)
[1]; 5 μM
  11-DOC absolute change vs ACTH stimulation with vehicle: -435.4 nmol/L
  11-DOC percentage change vs ACTH stimulation with vehicle: (−99%)
  17-OHP absolute change vs ACTH stimulation with vehicle: -31.55 nmol/L
  17-OHP percentage change vs ACTH stimulation with vehicle: (−90%)
  Androstenedione absolute change vs ACTH stimulation with vehicle: -15.19 nmol/L
  Androstenedione percentage change vs ACTH stimulation with vehicle: (−98%)
  Corticosterone absolute change vs ACTH stimulation with vehicle: -373.7 nmol/L
  Corticosterone percentage change vs ACTH stimulation with vehicle: (−100%)
  Cortisol absolute change vs ACTH stimulation with vehicle: -640.2 nmol/L
  Cortisol percentage change vs ACTH stimulation with vehicle: (−100%)
  DHEA absolute change vs ACTH stimulation with vehicle: <LLQ
  DHEAS absolute change vs ACTH stimulation with vehicle: <LLQ
  Prog absolute change vs ACTH stimulation with vehicle: +37.66 nmol/l
  Prog percentage change vs ACTH stimulation with vehicle: (+1201%)
  Testosterone absolute change vs ACTH stimulation with vehicle: -0.5513 nmol/L
  Testosterone percentage change vs ACTH stimulation with vehicle: (−85%)
  11-DOC absolute change vs control: -280.5 nmol/L
  11-DOC percentage change vs control: (−99%)
  17-OHP absolute change vs control: -14.33 nmol/L
  17-OHP percentage change vs control: (−93%)
  Androstenedione absolute change vs control: -7.978 nmol/L
  Androstenedione percentage change vs control: (−95%)
  Corticosterone absolute change vs control: -193.8 nmol/L
  Corticosterone percentage change vs control: (−99%)
  Cortisol absolute change vs control: -230.3 nmol/L
  Cortisol percentage change vs control: (−99%)
  DHEA absolute change vs control: <LLQ
  DHEAS absolute change vs control: <LLQ
  Prog absolute change vs control: +13.36 nmol/l
  Prog percentage change vs control: (+363%)
  Testosterone absolute change vs control: -0.3838 nmol/L
  Testosterone percentage change vs control: (−90%)
[1]; EAS associated adrenal hyperplasia no. 1, basal condition
  total change of steroids: -343.9 nmol/L
[1]; EAS associated adrenal hyperplasia no. 1, under ACTH stimulation
  total sum of change of the steroids: decrease: 138.5 nmol/L
[1]; human adrenal cells in the presence of ACTH drive
  propensity to increase 11-deoxycorticosterone secretion compared to racemic ketoconazole: less propensity to increase 11-deoxycorticosterone secretion
[2]
  IC50 inhibition of cortisol production: Ambiguous
[3]
  effect on cell number: significantly inhibited cell number
[4]
  accumulation in a subject's body over repeated dosing: significantly less accumulation
[5]; ACC no. 1, basal condition, 3 days, read-out: IC50 inhibition of cortisol production
  IC50: 5.78 nM
[5]; ACC no. 2, basal condition, 3 days, read-out: IC50 inhibition of cortisol production
  IC50: 57.1 nM
[5]; ACC no. 3, ACTH (85 μM) stimulated condition, 3 days, read-out: IC50 inhibition of cortisol production
  IC50: 32.1 nM
[5]; ACC no. 3, basal condition, 3 days, read-out: IC50 inhibition of cortisol production
  IC50: 73.1 nM
[5]; basal condition, ACC (n=3), read-out: mean IC50 cortisol production
  IC50: 38.3 nM

Reference: patent publication US12201632B2, “Levoketoconazole for treatment of congenital adrenal hyperplasia and primary aldosteronism” (Strongbridge Dublin Limited, priority 2018, dated 2025)
